The source made the active and inactive calls. No cut-off for these calls is given here.
How the values were obtained:
[1] = target: T1, E3 ubiquitin-protein ligase RNF126/Serine/threonine-protein kinase RIO2 (Homo sapiens, UniProt Q9BVS4+Q9BV68); assay: Molecular glue degradation activity at RNF126/RIOK2 in MG132-treated human MOLT-4 cells assessed as induction protein degradation at 1 uM incubated for 12 hrs by immunoblot analysis; assay type: cell-based
Target sequence in this assay (Q9BV68 2-311 partner limits assumed): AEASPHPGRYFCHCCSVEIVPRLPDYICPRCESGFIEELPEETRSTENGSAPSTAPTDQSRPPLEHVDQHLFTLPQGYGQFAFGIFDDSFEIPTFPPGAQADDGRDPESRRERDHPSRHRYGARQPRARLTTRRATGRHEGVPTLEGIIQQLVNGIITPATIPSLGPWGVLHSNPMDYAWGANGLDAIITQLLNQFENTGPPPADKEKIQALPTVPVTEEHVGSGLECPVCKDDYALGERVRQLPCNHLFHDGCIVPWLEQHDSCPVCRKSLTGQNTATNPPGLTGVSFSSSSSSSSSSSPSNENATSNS
Target sequence in this assay (Q9BVS4 whole entry): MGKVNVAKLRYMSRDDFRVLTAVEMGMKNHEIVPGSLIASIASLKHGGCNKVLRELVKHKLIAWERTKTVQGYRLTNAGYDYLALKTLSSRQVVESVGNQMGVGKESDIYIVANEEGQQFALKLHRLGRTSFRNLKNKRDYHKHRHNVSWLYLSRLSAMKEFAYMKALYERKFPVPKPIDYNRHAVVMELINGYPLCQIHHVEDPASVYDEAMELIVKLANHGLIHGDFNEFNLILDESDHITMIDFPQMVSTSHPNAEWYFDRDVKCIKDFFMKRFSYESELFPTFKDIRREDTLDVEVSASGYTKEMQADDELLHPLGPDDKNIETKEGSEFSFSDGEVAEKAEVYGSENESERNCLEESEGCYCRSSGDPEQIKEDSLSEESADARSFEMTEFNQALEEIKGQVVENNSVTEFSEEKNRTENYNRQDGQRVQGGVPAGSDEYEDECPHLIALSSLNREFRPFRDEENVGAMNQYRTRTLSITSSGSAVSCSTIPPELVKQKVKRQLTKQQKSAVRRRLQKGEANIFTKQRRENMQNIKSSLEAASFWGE

[2] = system: ASPC1; assay: Antiproliferative activity against human ASPC1 cells incubated for 72 hrs by CCK8 assay; assay type: functional, cell-based; conditions: ASPC1, 72 h
[3] = target: Serine/threonine-protein kinase RIO2 (Homo sapiens, UniProt Q9BVS4); assay: Inhibition of RIOK2 (unknown origin) ATPase activity incubated for 2 hrs in presence of ATP by ADP-Glo assay
Sequence of Serine/threonine-protein kinase RIO2 (Q9BVS4 whole entry): as above

[4] = Antiproliferative activity against HEK293 cells incubated for 72 hrs by CCK8 assay; assay type: toxicity, cell-based; conditions: human
[5] = target: T1, E3 ubiquitin-protein ligase RNF126/Serine/threonine-protein kinase RIO2; assay: Molecular glue degradation activity at RNF126/RIOK2 in human U-937 cells assessed as induction protein degradation by immunoblot analysis; assay type: cell-based
Target sequence in this assay (Q9BVS4 whole entry): as above
Target sequence in this assay (Q9BV68 whole entry): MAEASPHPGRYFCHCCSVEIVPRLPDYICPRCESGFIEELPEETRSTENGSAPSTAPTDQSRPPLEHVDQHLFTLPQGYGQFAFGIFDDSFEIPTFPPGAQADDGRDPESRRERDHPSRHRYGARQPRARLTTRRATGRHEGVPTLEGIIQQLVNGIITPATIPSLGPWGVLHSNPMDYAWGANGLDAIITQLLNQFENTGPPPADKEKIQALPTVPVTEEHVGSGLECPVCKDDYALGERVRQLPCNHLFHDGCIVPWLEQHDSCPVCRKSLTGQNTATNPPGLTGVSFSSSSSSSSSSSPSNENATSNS

[6] = AUClast in Sprague-Dawley rat at 5 mg/kg, iv measured for 24 hrs; assay type: ADME, organism-based; conditions: in vivo
[7] = target: T1, E3 ubiquitin-protein ligase RNF126/Serine/threonine-protein kinase RIO2; assay: Molecular glue degradation activity at RNF126/RIOK2 in human U-937 cells assessed as induction protein degradation by immunoblot analysis relative to control; assay type: cell-based
Target sequence in this assay (Q9BV68 2-311 partner limits assumed): as the sequence (Q9BV68 2-311 partner limits assumed) above
Target sequence in this assay (Q9BVS4 whole entry): as the sequence (Q9BVS4 whole entry) above

[8] = Antiproliferative activity against mouse NIH3T3 cells incubated for 72 hrs by CCK8 assay; assay type: toxicity, cell-based
[9] = target: T1, E3 ubiquitin-protein ligase RNF126/Serine/threonine-protein kinase RIO2; assay: Molecular glue degradation activity at RNF126/RIOK2 in human K562 cells assessed as induction protein degradation by immunoblot analysis; assay type: cell-based
Target sequence in this assay (Q9BVS4 whole entry): as above
Target sequence in this assay (Q9BV68 whole entry): as the sequence (Q9BV68 whole entry) above

[10] = system: OCI-Ly3; assay: Antiproliferative activity against human OCILY3 cells incubated for 72 hrs by CCK8 assay; assay type: functional, cell-based; conditions: OCI-Ly3, 72 h
[11] = target: T1, E3 ubiquitin-protein ligase RNF126/Serine/threonine-protein kinase RIO2; assay: Molecular glue degradation activity at RNF126/RIOK2 in human ASPC1 cells assessed as induction protein degradation by immunoblot analysis; assay type: cell-based
Target sequence in this assay (Q9BVS4 whole entry): as the sequence (Q9BVS4 whole entry) above
Target sequence in this assay (Q9BV68 whole entry): as the sequence (Q9BV68 whole entry) above

[12] = target: T1, E3 ubiquitin-protein ligase RNF126/Serine/threonine-protein kinase RIO2; assay: Molecular glue degradation activity at RNF126/RIOK2 in human HeLa cells assessed as induction protein degradation by immunoblot analysis relative to control; assay type: cell-based
Target sequence in this assay (Q9BV68 2-311 partner limits assumed): as the sequence (Q9BV68 2-311 partner limits assumed) above
Target sequence in this assay (Q9BVS4 whole entry): as the sequence (Q9BVS4 whole entry) above

[13] = target: T1, E3 ubiquitin-protein ligase RNF126/Serine/threonine-protein kinase RIO2; assay: Molecular glue degradation activity at RNF126/RIOK2 in human MOLT-4 cells assessed as increase in ubiquitination of RIOK2 at 1 uM incubated for 10 hrs by immunoblot analysis; assay type: cell-based
Target sequence in this assay (Q9BV68 2-311 partner limits assumed): as the sequence (Q9BV68 2-311 partner limits assumed) above
Target sequence in this assay (Q9BVS4 whole entry): as the sequence (Q9BVS4 whole entry) above

[14] = system: MOLT-4; assay: Induction of cell cycle arrest in human MOLT-4 cells assessed as decrease in cyclin B1 level by Western blot analysis; assay type: functional, cell-based; conditions: dose <= 900.0 nM
[15] = system: MOLT-4; assay: Antitumor activity against human MOLT-4 cells xenografted in SCID-CB17 mouse at 10 mg/kg, ip for 18 days relative to control; assay type: functional; conditions: MOLT-4, 432 h, time 18 day, read-out: TGI
[16] = Half life in Sprague-Dawley rat at 10 mg/kg, ip measured for 24 hrs; assay type: ADME, organism-based; conditions: in vivo
[17] = Oral bioavailability in Sprague-Dawley rat at 10 mg/kg measured for 24 hrs; assay type: ADME, organism-based; conditions: in vivo
[18] = target: T1, E3 ubiquitin-protein ligase RNF126/Serine/threonine-protein kinase RIO2; assay: Molecular glue degradation activity at RNF126/RIOK2 in human MOLT-4 cells assessed as induction protein degradation at 1 uM incubated for 24 hrs by immunoblot analysis relative to control; assay type: cell-based
Target sequence in this assay (Q9BV68 2-311 partner limits assumed): as the sequence (Q9BV68 2-311 partner limits assumed) above
Target sequence in this assay (Q9BVS4 whole entry): as the sequence (Q9BVS4 whole entry) above

[19] = system: MOLT-4; assay: Induction of apoptosis in human MOLT-4 cells assessed as increase in cleaved caspase-9 level by Western blot analysis; assay type: functional, cell-based; conditions: dose <= 900.0 nM
[20] = target: T1, E3 ubiquitin-protein ligase RNF126/Serine/threonine-protein kinase RIO2; assay: Molecular glue degradation activity at RNF126/RIOK2 in MLN4924-treated human MOLT-4 cells assessed as induction protein degradation at 1 uM incubated for 12 hrs by immunoblot analysis; assay type: cell-based
Target sequence in this assay (Q9BV68 2-311 partner limits assumed): as the sequence (Q9BV68 2-311 partner limits assumed) above
Target sequence in this assay (Q9BVS4 whole entry): as the sequence (Q9BVS4 whole entry) above

[21] = target: T1, E3 ubiquitin-protein ligase RNF126/Serine/threonine-protein kinase RIO2; assay: Molecular glue degradation activity at RNF126/RIOK2 in human MOLT-4 cells assessed as induction protein degradation at 1 uM incubated for 12 hrs by immunoblot analysis; assay type: cell-based
[22] = Cmax in Sprague-Dawley rat at 5 mg/kg, iv measured for 24 hrs; assay type: ADME, organism-based; conditions: in vivo
[23] = target: T1, E3 ubiquitin-protein ligase RNF126/Serine/threonine-protein kinase RIO2; assay: Molecular glue degradation activity at RNF126/RIOK2 in human HL-60 cells assessed as induction protein degradation by immunoblot analysis relative to control; assay type: cell-based
[24] = Toxicity in SCID-CB17 mouse xenografted with human MOLT-4 cells assessed as body weight loss at 10 mg/kg, ip for 18 days; assay type: organism-based; conditions: in vivo, 432 h, time 18 day
[25] = system: MOLT-4; assay: Induction of cell cycle arrest in human MOLT-4 cells assessed as accumulation at G2/M phase incubated for 24 hrs by PI staining based flow cytometry; assay type: functional; conditions: dose <= 900.0 nM
[26] = Half life in Sprague-Dawley rat at 5 mg/kg, iv measured for 24 hrs; assay type: ADME, organism-based; conditions: in vivo
[27] = system: MOLT-4; assay: Induction of apoptosis in human MOLT-4 cells incubated for 48 hrs by Annexin V-FITC/PI staining based flow cytometry; assay type: functional, cell-based; conditions: dose <= 900.0 nM
[28] = system: K562; assay: Antiproliferative activity against human K562 cells incubated for 72 hrs by CCK8 assay; assay type: functional, cell-based; conditions: K562, 72 h
[29] = target: T1, E3 ubiquitin-protein ligase RNF126/Serine/threonine-protein kinase RIO2; assay: Molecular glue degradation activity at RNF126/RIOK2 in JP-2-196-treated human MOLT-4 cells assessed as induction protein degradation at 1 uM incubated for 12 hrs by immunoblot analysis; assay type: cell-based
[30] = system: HL-60; assay: Antiproliferative activity against human HL-60 cells incubated for 72 hrs by CCK8 assay; assay type: functional, cell-based; conditions: HL-60, 72 h
[31] = target: T1, E3 ubiquitin-protein ligase RNF126/Serine/threonine-protein kinase RIO2; assay: Molecular glue degradation activity at RNF126/RIOK2 in human HL-60 cells assessed as induction protein degradation by immunoblot analysis; assay type: cell-based
Target sequence in this assay (Q9BVS4 whole entry): as above
Target sequence in this assay (Q9BV68 whole entry): as the sequence (Q9BV68 whole entry) above

[32] = target: T1, E3 ubiquitin-protein ligase RNF126/Serine/threonine-protein kinase RIO2; assay: Molecular glue degradation activity at RNF126/RIOK2 in human MOLT-4 cells assessed as decrease in AKT level at 500 nM incubated for 12 hrs by immunoblot analysis; assay type: cell-based
[33] = system: MOLT-4; assay: Induction of apoptosis in human MOLT-4 cells assessed as decrease in PARP level by Western blot analysis; assay type: functional, cell-based; conditions: dose <= 900.0 nM
[34] = system: MOLT-4; assay: Antiproliferative activity against human MOLT-4 cells incubated for 72 hrs by CCK8 assay; assay type: functional, cell-based; conditions: MOLT-4, 72 h
[35] = system: A549; assay: Antiproliferative activity against human A549 cells incubated for 72 hrs by CCK8 assay; assay type: functional, cell-based; conditions: A549, 72 h
[36] = system: MOLT-4; assay: Induction of apoptosis in human MOLT-4 cells at 900 nM incubated for 48 hrs by Annexin V-FITC/PI staining based flow cytometry relative to control; assay type: functional
[37] = target: T1, E3 ubiquitin-protein ligase RNF126/Serine/threonine-protein kinase RIO2; assay: Molecular glue degradation activity at RNF126/RIOK2 in human HeLa cells assessed as induction protein degradation by immunoblot analysis; assay type: cell-based
Target sequence in this assay (Q9BVS4 whole entry): as the sequence (Q9BVS4 whole entry) above
Target sequence in this assay (Q9BV68 whole entry): as the sequence (Q9BV68 whole entry) above

[38] = target: T1, E3 ubiquitin-protein ligase RNF126/Serine/threonine-protein kinase RIO2; assay: Molecular glue degradation activity at RNF126/RIOK2 in human A549 cells assessed as induction protein degradation by immunoblot analysis; assay type: cell-based
Target sequence in this assay (Q9BVS4 whole entry): as the sequence (Q9BVS4 whole entry) above
Target sequence in this assay (Q9BV68 whole entry): as the sequence (Q9BV68 whole entry) above

[39] = target: T1, E3 ubiquitin-protein ligase RNF126/Serine/threonine-protein kinase RIO2; assay: Molecular glue degradation activity at RNF126/RIOK2 in human MOLT-4 cells assessed as decrease in mTOR level at 500 nM incubated for 12 hrs by immunoblot analysis; assay type: cell-based
[40] = system: MOLT-4; assay: Induction of cell cycle arrest in human MOLT-4 cells assessed as decrease in CDK2 level by Western blot analysis; assay type: functional, cell-based; conditions: dose <= 900.0 nM
[41] = target: T1, E3 ubiquitin-protein ligase RNF126/Serine/threonine-protein kinase RIO2; assay: Molecular glue degradation activity at RNF126/RIOK2 in human MOLT-4 cells assessed as induction protein degradation incubated for 12 hrs by immunoblot analysis relative to control; assay type: cell-based
[42] = Antiproliferative activity against human MRC5 cells incubated for 72 hrs by CCK8 assay; assay type: toxicity, cell-based
[43] = system: U-937; assay: Antiproliferative activity against human U-937 cells incubated for 72 hrs by CCK8 assay; assay type: functional, cell-based; conditions: U-937, 72 h

Activity [1]: inactive
IC50 [2]: 1130 nM
IC50 [3]: 98 nM
DC50 [5]: 1300 nM
AUClast [6]: 1210 ng·h/mL
Emax [7]: 60.4%
DC50 [9]: > 10000 nM
IC50 [10]: 120 nM
DC50 [11]: > 10000 nM
Emax [12]: 50.3%
Activity [13]: Active
half-life [16]: 8.1 h
bioavailability [17]: 49.7%
Emax [18]: 94.8%
Activity [20]: inactive
Activity [21]: Active
Cmax [22]: 1440 ng/mL
Emax [23]: 74.6%
half-life [26]: 0.6 h
IC50 [28]: 1140 nM
Activity [29]: inactive
IC50 [30]: 340 nM
DC50 [31]: 550 nM
Activity [32]: Active
IC50 [34]: 130 nM
IC50 [35]: 1060 nM
DC50 [37]: 8700 nM
DC50 [38]: > 10000 nM
Activity [39]: Active
Emax [41]: 83.4%
IC50 [43]: 410 nM
Compound: COc1ccc(-c2ccc3[nH]c(=O)c4nnn(-c5ccc(N6CCN(C(=O)/C=C/C(=O)c7ccc(F)cc7)CC6)c(C(F)(F)F)c5)c4c3c2)cn1
IC50 at 72 h [4]: 1050 nM
IC50 at 72 h [8]: 1060 nM
Activity [14]: Dose-dependent-effect
inhibition in vivo at 10 mg/kg [15]: 18.6%
Activity [19]: Dose-dependent-effect
Activity [24]: Non-toxic
Activity [25]: Dose-dependent-effect
Activity [27]: Dose-dependent-effect
Activity [33]: Dose-dependent-effect
Activity [36]: 57.11%
Activity [40]: Dose-dependent-effect
IC50 at 72 h [42]: 1090 nM

Reference: ChEMBL document CHEMBL6078724, “Discovery of the first examples of right open reading frame kinase 2 (RIOK2) molecular glue degraders” (Eur J Med Chem, 2025)
